The NIST ThermoML archive (doi:10.1021/je700205n)

Conditions: Liquid

CCCCCCCn1cc[n+](C)c1.O=S(=O)([N-]S(=O)(=O)C(F)(F)F)C(F)(F)F
mass density [kg/m3]
Conditions | 293.15 K | 303.15 K | 313.15 K | 323.15 K | 333.15 K | 343.15 K | 353.15 K | 393.15 K
100 kPa | 1352 | 1342 | 1332 | 1322 | 1313 | 1304 | 1295 | 1261
1000 kPa | 1353 | 1343 | 1333 | 1323 | 1314 | 1304 | 1296 | 1262
2000 kPa | 1354 | 1343 | 1333 | 1324 | 1315 | 1305 | 1296 | 1263
3000 kPa | 1354 | 1344 | 1334 | 1325 | 1316 | 1306 | 1297 | 1264
4000 kPa | 1355 | 1345 | 1335 | 1325 | 1317 | 1307 | 1298 | 1265
5000 kPa | 1356 | 1346 | 1336 | 1326 | 1317 | 1308 | 1299 | 1266
7500 kPa | 1358 | 1347 | 1338 | 1328 | 1319 | 1310 | 1301 | 1268
10000 kPa | 1359 | 1349 | 1339 | 1330 | 1321 | 1312 | 1303 | 1271
15000 kPa | 1363 | 1353 | 1343 | 1334 | 1325 | 1316 | 1308 | 1276
20000 kPa | 1366 | 1357 | 1347 | 1338 | 1329 | 1320 | 1312 | 1281
25000 kPa | 1370 | 1360 | 1351 | 1342 | 1333 | 1324 | 1316 | 1285
30000 kPa | 1373 | 1364 | 1355 | 1345 | 1337 | 1328 | 1320 | 1290

CCCCCCCCn1cc[n+](C)c1.O=S(=O)([N-]S(=O)(=O)C(F)(F)F)C(F)(F)F
mass density [kg/m3]
Conditions | 293.15 K | 303.15 K | 313.15 K | 323.15 K | 333.15 K | 343.15 K | 353.15 K | 393.15 K
100 kPa | 1328 | 1315 | 1305 | 1296 | 1286 | 1278 | 1269 | 1236
1000 kPa | 1328 | 1316 | 1306 | 1296 | 1287 | 1278 | 1270 | 1237
2000 kPa | 1329 | 1317 | 1307 | 1297 | 1288 | 1279 | 1270 | 1238
3000 kPa | 1330 | 1317 | 1307 | 1298 | 1289 | 1280 | 1271 | 1239
4000 kPa | 1330 | 1318 | 1308 | 1299 | 1289 | 1281 | 1272 | 1240
5000 kPa | 1331 | 1319 | 1309 | 1299 | 1290 | 1282 | 1273 | 1241
7500 kPa | 1333 | 1321 | 1311 | 1301 | 1292 | 1284 | 1275 | 1243
10000 kPa | 1334 | 1322 | 1312 | 1303 | 1294 | 1286 | 1277 | 1246
15000 kPa | 1338 | 1326 | 1316 | 1307 | 1298 | 1290 | 1282 | 1251
20000 kPa | 1341 | 1329 | 1320 | 1311 | 1302 | 1294 | 1286 | 1256
25000 kPa | 1345 | 1333 | 1324 | 1315 | 1306 | 1298 | 1290 | 1261
30000 kPa | 1348 | 1337 | 1327 | 1319 | 1310 | 1303 | 1294 | 1266

CCn1cc[n+](C)c1.F[B-](F)(F)F [1-ethyl-3-methylimidazolium tetrafluoroborate]
mass density [kg/m3]
Conditions | 293.15 K | 303.15 K | 313.15 K | 323.15 K | 333.15 K | 343.15 K | 353.15 K | 393.15 K
100 kPa | 1305 | 1296 | 1288 | 1280 | 1272 | 1264 | 1257 | 1229
1000 kPa | 1305 | 1296 | 1288 | 1280 | 1272 | 1265 | 1257 | 1230
2000 kPa | 1306 | 1297 | 1289 | 1281 | 1273 | 1265 | 1258 | 1230
3000 kPa | 1306 | 1297 | 1289 | 1281 | 1273 | 1266 | 1258 | 1231
4000 kPa | 1307 | 1298 | 1290 | 1282 | 1274 | 1266 | 1259 | 1231
5000 kPa | 1307 | 1298 | 1290 | 1282 | 1274 | 1267 | 1259 | 1232
7500 kPa | 1308 | 1299 | 1291 | 1283 | 1275 | 1268 | 1261 | 1233
10000 kPa | 1309 | 1300 | 1292 | 1284 | 1277 | 1269 | 1262 | 1235
15000 kPa | 1311 | 1303 | 1295 | 1287 | 1279 | 1272 | 1264 | 1238
20000 kPa | 1313 | 1305 | 1297 | 1289 | 1281 | 1274 | 1267 | 1240
25000 kPa | 1316 | 1307 | 1299 | 1291 | 1284 | 1277 | 1269 | 1243
30000 kPa | 1318 | 1309 | 1301 | 1294 | 1286 | 1279 | 1272 | 1246

CCn1cc[n+](C)c1.O=S(=O)([N-]S(=O)(=O)C(F)(F)F)C(F)(F)F
mass density [kg/m3]
Conditions | 293.15 K | 303.15 K | 313.15 K | 323.15 K | 333.15 K | 343.15 K | 353.15 K | 393.15 K
100 kPa | 1526 | 1514 | 1503 | 1493 | 1482 | 1472 | 1461 | 1424
1000 kPa | 1526 | 1515 | 1504 | 1493 | 1483 | 1472 | 1462 | 1424
2000 kPa | 1527 | 1516 | 1505 | 1494 | 1483 | 1473 | 1463 | 1425
3000 kPa | 1528 | 1517 | 1506 | 1495 | 1484 | 1474 | 1464 | 1426
4000 kPa | 1528 | 1517 | 1506 | 1496 | 1485 | 1475 | 1465 | 1427
5000 kPa | 1529 | 1518 | 1507 | 1496 | 1486 | 1476 | 1466 | 1428
7500 kPa | 1531 | 1520 | 1509 | 1498 | 1488 | 1478 | 1468 | 1431
10000 kPa | 1533 | 1522 | 1511 | 1500 | 1490 | 1480 | 1470 | 1433
15000 kPa | 1536 | 1525 | 1515 | 1504 | 1494 | 1484 | 1474 | 1438
20000 kPa | 1540 | 1529 | 1518 | 1508 | 1498 | 1488 | 1478 | 1443
25000 kPa | 1543 | 1532 | 1522 | 1512 | 1502 | 1492 | 1483 | 1448
30000 kPa | 1547 | 1536 | 1526 | 1516 | 1506 | 1496 | 1487 | 1453
